This is an account of results in ChEMBL document CHEMBL4257523, “Chemical probes of Skp2-mediated p27 ubiquitylation and degradation” (Medchemcomm, 2018).

One assay deals with JeKo-1. The assay is described as follows: Antiproliferative activity against human JeKo1 cells. It counts as functional, cell-based.
Assay [1] is described as follows: Antiproliferative activity against human ECC1 cells. The assay is classed as functional, cell-based. Conditions: ECC-1.
The subject of another assay is HeLa. Briefly: Antiproliferative activity against human HeLa cells. The assay is classed as functional, cell-based.
The nature of assay [2]: Antiproliferative activity against mouse tsFT210 cells. It counts as functional, cell-based.
For the next assay, the system named is NIH3T3. Briefly: Antiproliferative activity against mouse NIH/3T3 cells. The assay is classed as functional, cell-based.
Assay [3] has as its target T1, Cyclin-dependent kinases regulatory subunit 1/S-phase kinase-associated protein 2 (Homo sapiens, UniProt P61024+Q13309). Briefly: Inhibition of N-terminal fluorescent monomeric Azami Green-tagged SKP2 (unknown origin)/CKS1 (unknown origin) expressed in Escherichia coli DH10 protein-protein interaction assessed as reduction in p27 ubiquitylation at 0.4 to 3.2 uM relative to control.
Target sequence in this assay (P61024 2-79 limits assumed): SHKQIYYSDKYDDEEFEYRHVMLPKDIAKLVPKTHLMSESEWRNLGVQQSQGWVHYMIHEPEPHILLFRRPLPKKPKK
Target sequence in this assay (Q13309 whole entry partner): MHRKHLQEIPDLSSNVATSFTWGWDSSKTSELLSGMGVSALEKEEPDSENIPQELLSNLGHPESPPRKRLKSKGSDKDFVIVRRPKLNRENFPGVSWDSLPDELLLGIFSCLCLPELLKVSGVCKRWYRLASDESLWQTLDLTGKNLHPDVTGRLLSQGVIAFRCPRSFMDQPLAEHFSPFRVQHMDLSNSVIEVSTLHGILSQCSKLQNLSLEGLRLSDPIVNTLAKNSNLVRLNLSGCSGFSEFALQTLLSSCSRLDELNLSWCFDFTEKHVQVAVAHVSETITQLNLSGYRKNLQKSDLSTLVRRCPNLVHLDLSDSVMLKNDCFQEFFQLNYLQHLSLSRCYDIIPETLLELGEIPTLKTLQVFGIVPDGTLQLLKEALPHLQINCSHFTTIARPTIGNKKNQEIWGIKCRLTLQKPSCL

The target of assay [4] is T1, Cyclin-dependent kinases regulatory subunit 1/S-phase kinase-associated protein 2. The assay is described as follows: Inhibition of GST-tagged SKP2 (unknown origin)/His6-tagged CKS1 (unknown origin) expressed in Escherichia coli protein-protein interaction after 1 hr by Alpha screen assay. (Alpha assays give light when donor and acceptor beads are brought close together.)
Target sequence in this assay (P61024 whole entry): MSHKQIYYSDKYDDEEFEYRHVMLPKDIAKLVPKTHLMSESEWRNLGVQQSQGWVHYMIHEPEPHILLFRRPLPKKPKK
Target sequence in this assay (Q13309 whole entry): as the sequence (Q13309 whole entry partner) above

The test system of assay [5] is RPMI-8226. Briefly: Antiproliferative activity against human RPMI8226 cells. The assay is classed as functional, cell-based.
The next assay relates to U-266. Briefly: Antiproliferative activity against human U266 cells. The assay is classed as functional, cell-based.
A further assay deals with MM1.S. The assay is described as follows: Antiproliferative activity against human MM1S cells. The assay is classed as functional, cell-based.
The nature of assay [6]: Antiproliferative activity against human ANBL-6 cells. The assay is classed as functional, cell-based.
The nature of assay [7]: Antiproliferative activity against human RPMI8226/LR5 cells. It counts as functional, cell-based. Conditions: RPMI-8226.
The subject of assay [8] is RPMI-8226. Briefly: Antiproliferative activity against doxorubicin-resistant human RPMI8226 cells. The assay is classed as functional, cell-based.
Assay [9] in a line: Antiproliferative activity against human U266/LR6 cells. It counts as functional, cell-based. Conditions: U-266.
Assay [10] is described as follows: Antiproliferative activity against human MM1R cells. It counts as functional, cell-based. Conditions: MM.1R.
Assay [11] is described as follows: Antiproliferative activity against human ANBL6/B7R cells. It counts as functional, cell-based. Conditions: ANBL-6.
Assay [12] has as its system S-phase kinase-associated protein 1/S-phase kinase-associated protein 2 (Homo sapiens). The assay is described as follows: Inhibition of SKP1/SKP2 protein-protein interaction in human MM1S cells assessed as reduction in p27 ubiquitylation at 10 uM after 16 hrs by PAGE analysis relative to control.
Assay [13] has the same test system. Briefly: Inhibition of SKP1/SKP2 protein-protein interaction in human MM1S cells assessed as reduction in p27 ubiquitylation at 20 uM after 16 hrs by PAGE analysis relative to control.
The test system is the same in assay [14]. Briefly: Inhibition of SKP1/SKP2 protein-protein interaction in human MM1S cells assessed as reduction in p27 ubiquitylation at 25 uM after 16 hrs by PAGE analysis relative to control.

Each structure is given as a SMILES string.

In general, EC50 refers to the concentration that produces a half-maximal response. The low end stands for a more potent agent, the high end for a less potent agent. In general, IC50 refers to the concentration at which inhibition is half-maximal. Low values mean greater potency, high ones weaker potency. Broadly, the inhibition is the relative decrease from the control value, in per cent.

In the case of `COC(=O)C1=C(C)N(c2ccc(Br)cc2)C(=O)/C1=C\c1ccccc1O`, the EC50 turned out to be 9.3 µM with JeKo-1 and 14.3 µM in [1].

For the molecule `C=C(C)C(=O)O[C@H]1CC(=C)[C@@H]2C[C@H](O)[C@](O)(CCl)[C@@H]2[C@H]2OC(=O)C(=C)[C@@H]21`, the IC50 with HeLa was determined as 3.2 µM; in assay [2], 1.6 µM; in the assay with NIH3T3 it was 12.7 µM. In [3], the inhibition lay in the range of 70 to 80%.

As to `O=C(OC12CC3CC(CC(C3)C1)C2)c1ccc(NCc2cc(O)ccc2O)cc1`, in [4], the IC50 worked out at 36 µM.

Turning to `CN(C)c1ccc(C(=C2C=CC(=[N+](C)C)C=C2)c2ccc(N(C)C)cc2)cc1` [GENTIAN VIOLET], the IC50 in the assay on HeLa is 0.4 µM; in [2] it was 0.6 µM; in the assay on NIH3T3, 5.3 µM.

For the molecule `CN(C)c1ccc(CNCCC(Cc2ccccc2)C2CCOC(C)(C)C2)cc1` (configuration not stated), the IC50 in the assay on RPMI-8226 [5] turned out to be 8 µM; in the assay with U-266, 4.2 µM; in the assay with MM1.S, 5.4 µM; in [6] it was 10 µM; in assay [7] it was 6.3 µM; in the assay with RPMI-8226 [8], 8.5 µM. Further, the IC50 worked out at 4.3 µM in assay [9], 5.4 µM in assay [10] and 8 µM in assay [11]. For the same molecule, the inhibition in [12] turned out to be 8%; in assay [13], 44%; in [14], 51%.
